ChEMBL document CHEMBL3580564, “Semisynthetic Studies on and Biological Evaluation of N-Methyllaurotetanine Analogues as Ligands for 5-HT Receptors” (J Nat Prod, 2015)

How the values were obtained:
[1] = biological target: 5-hydroxytryptamine receptor 7 (Homo sapiens, UniProt P34969); experiment: Displacement of [3H]LSD from human recombinant 5-HT7 receptor expressed in HEK cell membranes by radioligand binding assay; design: species or system HEK293
Homo sapiens [2] = organism: Homo sapiens; experiment: Selectivity index, ratio of Ki for human recombinant 5-HT1A receptor to Ki for human recombinant 5-HT7 receptor
[3] = biological target: T1, 5-hydroxytryptamine receptor 1A (Homo sapiens, UniProt P08908); experiment: Displacement of [3H]Way100635 from human recombinant 5-HT1A receptor expressed in CHO cell membranes by radioligand binding assay
T1 sequence (P08908 whole entry): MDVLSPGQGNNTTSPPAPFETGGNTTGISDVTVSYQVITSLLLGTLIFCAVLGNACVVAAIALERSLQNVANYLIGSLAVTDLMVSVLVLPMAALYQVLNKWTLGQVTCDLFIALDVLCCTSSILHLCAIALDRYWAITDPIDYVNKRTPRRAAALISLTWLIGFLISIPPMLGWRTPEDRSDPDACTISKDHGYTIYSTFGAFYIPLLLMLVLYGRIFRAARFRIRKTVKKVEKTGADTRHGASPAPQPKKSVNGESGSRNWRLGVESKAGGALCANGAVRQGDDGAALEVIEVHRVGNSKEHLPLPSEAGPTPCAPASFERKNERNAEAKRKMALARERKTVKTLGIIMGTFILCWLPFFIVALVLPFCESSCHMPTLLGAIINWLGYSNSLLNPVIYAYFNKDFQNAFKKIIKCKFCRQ

[4] = biological target: 5-hydroxytryptamine receptor 2A (Homo sapiens, UniProt P28223); experiment: Displacement of [3H]ketanserin from human recombinant 5-HT2A receptor expressed in HEKT cell membranes by radioligand binding assay; format: cell-based
[5] = biological target: T2, 5-hydroxytryptamine receptor 1A (Homo sapiens) (UniProt P08908); experiment: Potency index, ratio of Ki for N-Methyllaurotetanine to Ki for test compound against human recombinant 5-HT1A receptor expressed in CHO cell membranes by radioligand binding assay
T2 sequence (whole entry): T1 sequence (P08908 whole entry)

Homo sapiens [6] = organism: Homo sapiens; experiment: Selectivity index, ratio of Ki for human recombinant 5-HT2A receptor to Ki for human recombinant 5-HT7 receptor

Chain of 5-hydroxytryptamine receptor 7 (P34969 whole entry): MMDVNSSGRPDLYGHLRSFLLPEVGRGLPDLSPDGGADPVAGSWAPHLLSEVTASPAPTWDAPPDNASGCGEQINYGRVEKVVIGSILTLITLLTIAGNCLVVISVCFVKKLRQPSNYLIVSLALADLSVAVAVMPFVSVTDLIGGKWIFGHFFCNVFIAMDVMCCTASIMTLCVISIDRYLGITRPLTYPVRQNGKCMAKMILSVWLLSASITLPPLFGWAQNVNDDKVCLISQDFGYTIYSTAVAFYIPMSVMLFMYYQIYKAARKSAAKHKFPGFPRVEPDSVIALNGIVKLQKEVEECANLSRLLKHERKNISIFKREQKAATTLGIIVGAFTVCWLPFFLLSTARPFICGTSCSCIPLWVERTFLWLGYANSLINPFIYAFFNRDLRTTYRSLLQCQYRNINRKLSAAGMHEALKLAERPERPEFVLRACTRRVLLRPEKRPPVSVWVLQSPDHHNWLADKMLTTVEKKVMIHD
Chain of 5-hydroxytryptamine receptor 2A (P28223 whole entry): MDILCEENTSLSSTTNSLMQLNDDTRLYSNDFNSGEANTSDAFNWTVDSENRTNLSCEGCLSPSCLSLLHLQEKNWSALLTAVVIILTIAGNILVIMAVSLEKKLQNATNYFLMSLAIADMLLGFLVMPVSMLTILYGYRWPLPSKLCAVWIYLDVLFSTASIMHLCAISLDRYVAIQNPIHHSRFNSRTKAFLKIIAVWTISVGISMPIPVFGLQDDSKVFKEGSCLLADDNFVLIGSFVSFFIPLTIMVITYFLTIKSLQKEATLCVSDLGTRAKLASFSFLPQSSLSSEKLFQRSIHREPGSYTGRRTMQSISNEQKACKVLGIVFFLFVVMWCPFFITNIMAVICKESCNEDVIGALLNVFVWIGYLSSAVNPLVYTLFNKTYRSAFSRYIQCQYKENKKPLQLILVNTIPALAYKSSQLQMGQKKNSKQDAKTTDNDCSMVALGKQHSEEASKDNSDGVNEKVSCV

Row | Structure (SMILES) | Ki [1] | Ratio Ki (Homo sapiens [2]) | Ki [3] | Ki [4] | Ratio Ki [5] | Ratio Ki (Homo sapiens [6])
1 | COc1cc2c(cc1OCc1ccccc1)C[C@H]1c3c(cc(OC)c(OC)c3-2)CCN1C | 23 nM | 4 | 92 nM | 216 nM | 3 | 9
2 | CCCCOc1cc2c(cc1OC)-c1c(OC)c(OC)cc3c1[C@H](C2)N(C)CC3 | 15 nM | 10 | 153 nM | 268 nM |  | 18
3 | CCC(C)Oc1cc2c(cc1OC)-c1c(OC)c(OC)cc3c1[C@H](C2)N(C)CC3 (some centres undefined) | 34 nM | 7 | 244 nM | 377 nM | < 3 | 7
4 | CCCCC(C)Oc1cc2c(cc1OC)-c1c(OC)c(OC)cc3c1[C@H](C2)N(C)CC3 (some centres undefined) | 38 nM | 4 | 152 nM | 446 nM | < 3 | 12
5 | COc1cc2c(cc1OCCF)C[C@H]1c3c(cc(OC)c(OC)c3-2)CCN1C | 52 nM | 16 | 845 nM | 1160 nM |  | 22
6 | C=CCOc1cc2c(cc1OC)-c1c(OC)c(OC)cc3c1[C@H](C2)N(C)CC3 | 20 nM | 18 | 361 nM | 383 nM |  | 18
7 | CCCCCCOc1cc2c(cc1OC)-c1c(OC)c(OC)cc3c1[C@H](C2)N(C)CC3 | 58 nM | 5 | 273 nM | 570 nM |  | 10
8 | CCCC(C)Oc1cc2c(cc1OC)-c1c(OC)c(OC)cc3c1[C@H](C2)N(C)CC3 (some centres undefined) | 24 nM | 5 | 117 nM | 244 nM | < 3 | 5
